Measured values from ChEMBL document CHEMBL1201862, “PubChem BioAssay data set” (2004).
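Exposure lasted 48 hours, with cells grown in 96-well plates and compounds tested at five concentrations. GI50: concentration for 50% inhibition of growth.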 Calls of active or inactive are those of the source. Cut-off read from the data, not from the text of the source: active = GI50 up to about 1.1 µM and inactive = higher.

What was measured:
Test in all cases: inhibition of tumour cell growth, NCI panel, 48 h
[1] = tested on: OVCAR-5
[2] = tested on: SK-MEL-5
[3] = tested on: HT-29
[4] = tested on: CCRF-CEM
[5] = tested on: NCI-H23
[6] = tested on: NCI/ADR-RES
[7] = tested on: MOLT-4
[8] = tested on: CAKI-1
[9] = tested on: UACC-62
[10] = tested on: COLO 205
[11] = tested on: A549
[12] = tested on: SK-MEL-28
[13] = tested on: U-251
[14] = tested on: RPMI-8226
[15] = tested on: K562
[16] = tested on: HCC 2998
[17] = tested on: SK-OV-3
[18] = tested on: SF-268
[19] = tested on: LOX IMVI
[20] = tested on: SF-295
[21] = tested on: KM12
[22] = tested on: NCI-H226
[23] = tested on: HCT-116
[24] = tested on: SK-MEL-2
[25] = tested on: OVCAR-8
[26] = tested on: SN12C
[27] = tested on: Hs-578T
[28] = tested on: OVCAR-4
[29] = tested on: IGROV-1
[30] = tested on: MDA-N
[31] = tested on: UACC-257
[32] = tested on: MCF7
[33] = tested on: T47D
[34] = tested on: SF-539
[35] = tested on: MDA-MB-231
[36] = tested on: HCT-15
[37] = tested on: EKVX
[38] = tested on: PC-3
[39] = tested on: SW-620
[40] = tested on: HOP-62
[41] = tested on: ACHN
[42] = tested on: 786-0
[43] = tested on: HL-60
[44] = tested on: SR
[45] = tested on: M14
[46] = tested on: SNB-19
[47] = tested on: NCI-H460
[48] = tested on: SNB-75
[49] = tested on: DU-145
[50] = tested on: UO-31
[51] = tested on: Malme-3M
[52] = tested on: TK-10
[53] = tested on: BT-549
[54] = tested on: NCI-H522
[55] = tested on: RXF 393
[56] = tested on: OVCAR-3
[57] = tested on: MDA-MB-435
[58] = tested on: A498
[59] = tested on: HOP-92

C[C@@]1(OC(=O)c2cc([N+](=O)[O-])cc([N+](=O)[O-])c2)C[C@@H]2CCCC[C@@H]21
GI50 [1]: > 100 µM (inactive)
GI50 [2]: 83.8 µM (inactive)
GI50 [3]: > 100 µM (inactive)
GI50 [4]: > 100 µM (inactive)
GI50 [5]: > 100 µM (inactive)
GI50 [6]: > 100 µM (inactive)
GI50 [7]: > 100 µM (inactive)
GI50 [8]: > 100 µM (inactive)
GI50 [9]: > 100 µM (inactive)
GI50 [10]: > 100 µM (inactive)
GI50 [11]: > 100 µM (inactive)
GI50 [12]: > 100 µM (inactive)
GI50 [13]: > 100 µM (inactive)
GI50 [14]: 31.6 µM (inactive)
GI50 [15]: > 100 µM (inactive)
GI50 [16]: > 100 µM (inactive)
GI50 [17]: > 100 µM (inactive)
GI50 [18]: > 100 µM (inactive)
GI50 [19]: > 100 µM (inactive)
GI50 [20]: 66.4 µM (inactive)
GI50 [21]: > 100 µM (inactive)
GI50 [22]: > 100 µM (inactive)
GI50 [23]: > 100 µM (inactive)
GI50 [24]: > 100 µM (inactive)
GI50 [25]: > 100 µM (inactive)
GI50 [26]: > 100 µM (inactive)
GI50 [27]: 41.8 µM (inactive)
GI50 [28]: > 100 µM (inactive)
GI50 [29]: > 100 µM (inactive)
GI50 [30]: > 100 µM (inactive)
GI50 [31]: > 100 µM (inactive)
GI50 [32]: > 100 µM (inactive)
GI50 [33]: > 100 µM (inactive)
GI50 [34]: > 100 µM (inactive)
GI50 [35]: > 100 µM (inactive)
GI50 [36]: > 100 µM
GI50 [37]: > 100 µM (inactive)
GI50 [38]: > 100 µM (inactive)
GI50 [39]: > 100 µM (inactive)
GI50 [40]: > 100 µM (inactive)
GI50 [41]: > 100 µM (inactive)
GI50 [42]: > 100 µM (inactive)
GI50 [43]: > 100 µM (inactive)
GI50 [44]: > 100 µM (inactive)
GI50 [45]: > 100 µM (inactive)
GI50 [46]: > 100 µM (inactive)
GI50 [47]: > 100 µM (inactive)
GI50 [48]: 48.2 µM (inactive)
GI50 [49]: > 100 µM (inactive)
GI50 [50]: > 100 µM (inactive)
GI50 [51]: 58.3 µM (inactive)
GI50 [52]: > 100 µM (inactive)
GI50 [53]: > 100 µM (inactive)
GI50 [54]: > 100 µM (inactive)

CC(=O)Nc1ccc2c(c1)/C(=N/c1ccc(C(=O)O)cc1)c1ccccc1-2
GI50 [1]: > 100 µM (inactive)
GI50 [2]: 25.8 µM (inactive)
GI50 [3]: 59.6 µM (inactive)
GI50 [55]: > 100 µM (inactive)
GI50 [4]: 26.4 µM (inactive)
GI50 [5]: > 100 µM (inactive)
GI50 [6]: 95.1 µM (inactive)
GI50 [7]: 32.1 µM (inactive)
GI50 [8]: > 100 µM (inactive)
GI50 [9]: 91.4 µM (inactive)
GI50 [10]: 57.3 µM (inactive)
GI50 [11]: > 100 µM (inactive)
GI50 [56]: 99.8 µM (inactive)
GI50 [12]: > 100 µM (inactive)
GI50 [13]: > 100 µM (inactive)
GI50 [57]: > 100 µM (inactive)
GI50 [14]: 36 µM (inactive)
GI50 [15]: 63.1 µM (inactive)
GI50 [16]: > 100 µM (inactive)
GI50 [17]: > 100 µM (inactive)
GI50 [18]: > 100 µM (inactive)
GI50 [19]: 50.9 µM (inactive)
GI50 [20]: 96.4 µM (inactive)
GI50 [21]: 51.4 µM (inactive)
GI50 [22]: 39.5 µM (inactive)
GI50 [23]: > 100 µM (inactive)
GI50 [25]: 76.7 µM (inactive)
GI50 [26]: > 100 µM (inactive)
GI50 [27]: 92.7 µM (inactive)
GI50 [28]: 41 µM (inactive)
GI50 [29]: 46.3 µM (inactive)
GI50 [58]: > 100 µM (inactive)
GI50 [30]: > 100 µM (inactive)
GI50 [31]: > 100 µM (inactive)
GI50 [32]: 2.42 µM (inactive)
GI50 [33]: 28 µM (inactive)
GI50 [59]: 37.9 µM (inactive)
GI50 [36]: 43.9 µM
GI50 [37]: 45.9 µM (inactive)
GI50 [38]: 83.6 µM (inactive)
GI50 [39]: > 100 µM (inactive)
GI50 [40]: 86.1 µM (inactive)
GI50 [41]: > 100 µM (inactive)
GI50 [42]: > 100 µM (inactive)
GI50 [43]: < 0.01 µM (active)
GI50 [45]: 99.1 µM (inactive)
GI50 [46]: 55.6 µM (inactive)
GI50 [47]: 44.7 µM (inactive)
GI50 [49]: > 100 µM (inactive)
GI50 [50]: 38.3 µM (inactive)
GI50 [51]: > 100 µM (inactive)
GI50 [52]: > 100 µM (inactive)
GI50 [53]: 47.1 µM (inactive)
GI50 [54]: 70 µM (inactive)

CCCCCCCCCCCCOP(=O)(O)OP(=O)(O)OCC1OC(n2ccc(N)nc2=O)CC1O (stereo not given)
GI50 [1]: > 100 µM (inactive)
GI50 [2]: > 100 µM (inactive)
GI50 [3]: > 100 µM (inactive)
GI50 [55]: > 100 µM (inactive)
GI50 [4]: > 100 µM (inactive)
GI50 [5]: > 100 µM (inactive)
GI50 [6]: > 100 µM (inactive)
GI50 [7]: > 100 µM (inactive)
GI50 [8]: > 100 µM (inactive)
GI50 [9]: > 100 µM (inactive)
GI50 [10]: > 100 µM (inactive)
GI50 [11]: > 100 µM (inactive)
GI50 [56]: > 100 µM (inactive)
GI50 [12]: > 100 µM (inactive)
GI50 [13]: > 100 µM (inactive)
GI50 [57]: > 100 µM (inactive)
GI50 [14]: > 100 µM (inactive)
GI50 [15]: > 100 µM (inactive)
GI50 [16]: > 100 µM (inactive)
GI50 [17]: > 100 µM (inactive)
GI50 [18]: > 100 µM (inactive)
GI50 [19]: > 100 µM (inactive)
GI50 [20]: > 100 µM (inactive)
GI50 [21]: > 100 µM (inactive)
GI50 [22]: > 100 µM (inactive)
GI50 [23]: > 100 µM (inactive)
GI50 [24]: > 100 µM (inactive)
GI50 [25]: > 100 µM (inactive)
GI50 [26]: > 100 µM (inactive)
GI50 [27]: > 100 µM (inactive)
GI50 [28]: > 100 µM (inactive)
GI50 [29]: > 100 µM (inactive)
GI50 [58]: > 100 µM (inactive)
GI50 [30]: > 100 µM (inactive)
GI50 [31]: > 100 µM (inactive)
GI50 [32]: > 100 µM (inactive)
GI50 [33]: 38.3 µM (inactive)
GI50 [34]: > 100 µM (inactive)
GI50 [35]: > 100 µM (inactive)
GI50 [59]: > 100 µM (inactive)
GI50 [36]: > 100 µM
GI50 [37]: > 100 µM (inactive)
GI50 [38]: > 100 µM (inactive)
GI50 [39]: > 100 µM (inactive)
GI50 [40]: > 100 µM (inactive)
GI50 [41]: > 100 µM (inactive)
GI50 [42]: > 100 µM (inactive)
GI50 [43]: > 100 µM (inactive)
GI50 [45]: > 100 µM (inactive)
GI50 [46]: > 100 µM (inactive)
GI50 [47]: > 100 µM (inactive)
GI50 [48]: 95.9 µM (inactive)
GI50 [50]: > 100 µM (inactive)
GI50 [51]: > 100 µM (inactive)
GI50 [52]: > 100 µM (inactive)
GI50 [53]: > 100 µM (inactive)
GI50 [54]: > 100 µM (inactive)
